The source made the active and inactive calls. The rule behind the calls is not given here.
How the values were obtained:
[1] = target: Serine/threonine-protein kinase PLK1 (Homo sapiens, UniProt P53350); assay: Inhibition of recombinant GST-tagged PLK1 using biotin-ahx-AKMETTFYDDALNASFLPSEKKK-amide as substrate after 30 mins by scintillation counting analysis in presence of gamma-[33P]ATP
[2] = Oral bioavailability in mouse; format: ADME, organism-based; conditions: in vivo
[3] = Half life in mouse; format: ADME, organism-based; conditions: in vivo
MIA PaCa-2 = assay: Antitumor activity against human MIAPaCa2 cells xenografted in SCID mouse assessed as tumor growth inhibition at 120 mg/kg/day, ip measured on day 21 to day 44 relative to vehicle-treated control; format: functional, organism-based

Sequence of Serine/threonine-protein kinase PLK1 (P53350 whole entry): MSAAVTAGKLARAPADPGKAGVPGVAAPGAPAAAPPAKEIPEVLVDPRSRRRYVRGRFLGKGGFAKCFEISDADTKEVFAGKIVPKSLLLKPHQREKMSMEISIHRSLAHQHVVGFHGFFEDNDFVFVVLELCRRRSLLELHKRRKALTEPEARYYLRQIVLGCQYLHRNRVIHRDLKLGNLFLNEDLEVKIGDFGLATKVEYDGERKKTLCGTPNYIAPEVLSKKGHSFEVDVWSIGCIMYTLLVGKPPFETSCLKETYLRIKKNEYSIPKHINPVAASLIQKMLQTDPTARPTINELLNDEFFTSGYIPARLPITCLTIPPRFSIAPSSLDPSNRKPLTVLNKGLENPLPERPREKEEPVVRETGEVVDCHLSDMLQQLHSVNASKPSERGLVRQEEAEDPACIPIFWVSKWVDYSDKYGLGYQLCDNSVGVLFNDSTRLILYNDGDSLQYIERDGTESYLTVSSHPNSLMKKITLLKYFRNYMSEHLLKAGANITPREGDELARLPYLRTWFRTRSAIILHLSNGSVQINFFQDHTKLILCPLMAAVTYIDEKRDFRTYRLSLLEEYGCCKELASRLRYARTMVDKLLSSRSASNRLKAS

Ki [1] [nM] | SMILES | other results
8530 | O=c1c(NCCN2CCOCC2)c(Nc2ccnc(Nc3ccc(-c4ccccc4)cc3)n2)c1=O | 
1180 | CC(C)CC(C)Nc1c(Nc2ccnc(Nc3ccc(-c4ccccc4)cc3)n2)c(=O)c1=O (centres undefined) | 
9930 | C[C@@H](Nc1nccc(Nc2c(N[C@H](C)C(C)(C)C)c(=O)c2=O)n1)c1ccccc1 | 
14000 | O=c1c(NCC2CC2)c(Nc2ccnc(Nc3ccc(-c4ccccc4)cc3)n2)c1=O | 
14 | CC(C)(C)Nc1c(Nc2ccnc(Nc3ccc(-c4ccccc4)cc3)n2)c(=O)c1=O | 
24900 | CC(Nc1c(Nc2ccnc(Nc3ccc(-c4ccccc4)cc3)n2)c(=O)c1=O)c1ccccc1 (centres undefined) | 
 | C[C@@H](Nc1c(Nc2ccncc2)c(=O)c1=O)C(C)(C)C | bioavailability [2]: 54%; half-life [3]: 23.4 min
610 | C[C@@H](Nc1c(Nc2ccnc(Nc3ccc(OC(F)(F)F)cc3)n2)c(=O)c1=O)C(C)(C)C | 
10 | CC(C)(C)Nc1c(Nc2ccnc(Nc3ccc4c(c3)[nH]c3ccccc34)n2)c(=O)c1=O | 
43 | CC(C)(C)Nc1c(Nc2ccnc(Nc3ccc4ncsc4c3)n2)c(=O)c1=O | 
1800 | CC(C)(C)CNc1c(Nc2ccnc(Nc3ccc(-c4ccccc4)cc3)n2)c(=O)c1=O | 
17600 | O=c1c(Nc2ccc(OC(F)(F)F)cc2)c(Nc2ccnc(Nc3ccc(-c4ccccc4)cc3)n2)c1=O | 
166 | CC(C)C(C)Nc1c(Nc2ccnc(Nc3ccc(-c4ccccc4)cc3)n2)c(=O)c1=O (centres undefined) | 
13 | CCC(C)(C)Nc1c(Nc2ccnc(Nc3ccc(-c4ccccc4)cc3)n2)c(=O)c1=O | 
> 8800 | CC(C)(C)Nc1c(Nc2nc(Nc3ccc4c(c3)Cc3ccccc3-4)ncc2F)c(=O)c1=O | 
333 | C[C@@H](Nc1c(Nc2ccnc(Nc3cccc(-c4ccccc4)c3)n2)c(=O)c1=O)C(C)(C)C | 
10 | CC(C)(C)Nc1c(Nc2ccnc(Nc3ccc(-c4cn[nH]c4)cc3)n2)c(=O)c1=O | 
22 | CC(C)(C)Nc1c(Nc2ccnc(Nc3ccc4c(c3)CCO4)n2)c(=O)c1=O | 
 | Nc1ccn([C@@H]2O[C@H](CO)[C@@H](O)C2(F)F)c(=O)n1 | TGI (MIA PaCa-2): Active
85 | C[C@@H](Nc1c(Nc2ccnc(Nc3ccc4ccccc4c3)n2)c(=O)c1=O)C(C)(C)C | 
75 | C[C@@H](Nc1c(Nc2ccnc(Nc3ccc(-c4ccccc4)cc3)n2)c(=O)c1=O)C(C)(C)C | 
272 | C[C@@H](Nc1c(Nc2ccnc(Nc3ccc(Cl)cc3)n2)c(=O)c1=O)C(C)(C)C | 
255 | C[C@@H](Nc1c(Nc2ccnc(Nc3ccc4c(c3)OCCO4)n2)c(=O)c1=O)C(C)(C)C | 
41 | C[C@@H](Nc1c(Nc2ccnc(Nc3ccc4c(c3)Cc3ccccc3-4)n2)c(=O)c1=O)C(C)(C)C | 

Ki [1] [nM] | SMILES | other results
165 | C[C@@H](Nc1c(Nc2ccnc(Nc3ccc4c(c3)OCO4)n2)c(=O)c1=O)C(C)(C)C | 
175 | CC(C)(C)Nc1c(Nc2ccnc(Nc3ccc(N4CCOCC4)cc3)n2)c(=O)c1=O | 
141 | COc1ccc(Nc2nccc(Nc3c(N[C@H](C)C(C)(C)C)c(=O)c3=O)n2)cc1 | 
234 | COc1cc(Nc2nccc(Nc3c(N[C@H](C)C(C)(C)C)c(=O)c3=O)n2)cc(OC)c1OC | 
32000 | C[C@@H](Nc1c(Nc2ccccc2)c(=O)c1=O)C(C)(C)C | 
> 44000 | C[C@@H](Nc1c(Nc2ccnc(Nc3cccnc3)n2)c(=O)c1=O)C(C)(C)C | 
28 | CC(C)(C)Nc1c(Nc2ccnc(Nc3ccc(-c4cccnc4)cc3)n2)c(=O)c1=O | 
232 | C[C@@H](Nc1c(Nc2ccnc(Nc3ccc(F)cc3)n2)c(=O)c1=O)C(C)(C)C | 
465 | C[C@@H](Nc1c(Nc2ccnc(Nc3ccccc3)n2)c(=O)c1=O)C(C)(C)C | 
276 | C[C@@H](Nc1c(Nc2ccnc(Nc3ccc(Oc4ccccc4)cc3)n2)c(=O)c1=O)C(C)(C)C | 
17 | CC(C)(C)Nc1c(Nc2ccnc(Nc3ccc4[nH]ncc4c3)n2)c(=O)c1=O | 
4 | CC(C)(C)Nc1c(Nc2ccnc(Nc3ccc4c(c3)Cc3ccccc3-4)n2)c(=O)c1=O | 
20 | CC(=O)N1CCc2cc(Nc3nccc(Nc4c(NC(C)(C)C)c(=O)c4=O)n3)ccc21 | 
1010 | Cc1ccc(Nc2nccc(Nc3c(N[C@H](C)C(C)(C)C)c(=O)c3=O)n2)cc1 | 
> 44000 | C[C@@H](Nc1c(Nc2cccnc2)c(=O)c1=O)C(C)(C)C | 
15 | CC(C)(C)Nc1c(Nc2ccnc(Nc3ccc(-c4csnn4)cc3)n2)c(=O)c1=O | 
354 | C[C@@H](Nc1c(Nc2ccnc(Nc3ccc(Br)cc3)n2)c(=O)c1=O)C(C)(C)C | 
> 44000 | C[C@@H](Nc1c(Nc2ccnc(Nc3ccncc3)n2)c(=O)c1=O)C(C)(C)C | 
771 | COc1ccc(Nc2nccc(Nc3c(N[C@H](C)C(C)(C)C)c(=O)c3=O)n2)c(OC)c1 | 
40800 | C[C@@H](Nc1c(Nc2ccnc(Nc3ccccn3)n2)c(=O)c1=O)C(C)(C)C | 
7720 | COc1cc(Nc2ncc(C#N)c(Nc3c(N[C@H](C)C(C)(C)C)c(=O)c3=O)n2)cc(OC)c1OC | 
315 | C[C@@H](Nc1c(Nc2ccnc(Nc3cccc4ccccc34)n2)c(=O)c1=O)C(C)(C)C | 
82 | CC(C)(C)Nc1c(Nc2ccnc(Nc3ccc(-c4ccccn4)cc3)n2)c(=O)c1=O | 
47 | C[C@H](Nc1c(Nc2ccnc(Nc3ccc(-c4ccccc4)cc3)n2)c(=O)c1=O)C(C)(C)C | 
